In patent publication US5180720A, “2- and 3-alkoxy or hydroxy-8-substituted-dibenz[b,f]-[1,4]oxazepine-10(11H)-carboxylic acid, substituted hydrazides and methods for treating pain” (G. D. Searle & Co., priority 1991, dated 1993):
“Also recorded” adds a separate entry of the source.

How the values were obtained:
[1] = system: prostaglandins of the E series; conditions: cited from earlier work
mice = experiment: PBQ Writhing Assay (analgesic activity); format: in vivo, mouse (Charles River male albino mice); conditions: for rank order of potency in the Writhing Assay: PBQ writhing; for PBQ writhing assay, I.G. (activity): 30 mg/kg i.g.; for PBQ writhing assay, S.C. (activity): 30 mg/kg s.c.
Source text: The Writhing Assay is one of the most widely-used experimental procedures for measuring the analgesic activity of different narcotic and nonnarcotic analgesic agents, and involves the continuous, chemically-induced pain of visceral origin to an animal, such as a mouse or rat. [Gyires et al., Arch. int. Pharmacodyn, 267, 131-140 (1984); C. Vander Wende et al., Fed. Proc., 15, 494 (1956); Koster et al., Fed. Proc., 18, 412 (1959); and Witken et al., J. Pharmacol. exp. Ther., 133, 400-408 (1961).] Chemicals which may be used to induce this pain include phenylbenzoquinone (PBQ) and acetic acid. As a result of the chemical irritation to the animal, a characteristic stretching and writhing of the animal (dorsiflexion of the animal's back, extension of its hindlimbs and the strong contraction of its abdominal musculature) will generally occur. […] Drugs which reduce the number of writhes of the animal appear to restore the normal nociceptive threshold of the animal.
Charles River male albino mice, weighing 20 to 30 grams were used in this assay.
Thirty minutes after subcutaneous or intragastric administration to ten mice of 30 mg per kilogram of body weight of a compound of the present invention ("test compound"), […] per 10 g of body weight of a 0.025% w/v solution of PBQ was injected intraperitoneally into each mouse. Ten mice which were given saline in place of a test compound of the invention were used as a control group.
Five minutes later, each mouse was individually placed into a glass beaker for observation, and the number of writhes occurring during the following ten-minute period was counted.
A test compound was considered to have produced analgesia in a mouse if, in accordance with the conditions set forth above, and under the test criteria employed for this assay, after the administration of 30 mg per kilogram of body weight of a compound of the present invention to the mouse, the number of writhes elicited by a mouse injected with PBQ was equal to, or less than, one-half the median number of writhes recorded for the saline-treated control group of mice that day, as described by Taber in "Predictive Value of Analgesic Assays in Mice and Rats," Advances in Biochemical Psychopharmacology, 8, 191 (1974).
The standard initial screening dose of a test compound employed in this assay was 30 mg per kilogram of body weight for both routes of administration. If this initial screening dose of the test compound produced analgesia in seven out of ten mice, then the effect of additional doses of the test compound on the writhing response was evaluated, and then the ED50 dose was generally calculated. (The slopes of the dose-response curves for all test compounds analyzed were compared as described by Tallarida and Murray, Manual of Pharmacologic Calculations, Page 11 (Springer Verlag, N.Y., 1981)).

[2] = molecular target: T1, prostaglandin E2-induced contractions of segments of guinea pig ileum (Cavia porcellus, UniProt A0A286XHJ6); experiment: Prostaglandin (PGE) Antagonism Assay, guinea pig ileum; format: cell-based; parameters: key to PGE antagonism in guinea pig ileum (activity): Active: A concentration of the test compound was determined to be "active" if it produced a dose ratio significantly greater than that obtained in a series of blank treatments
T1 construct: Segments of ileum about 2 cm long were then cut and mounted in a 10-mL tissue bath; from tissue; host or cells: ileum segments of male albino guinea pigs
T1 sequence (A0A286XHJ6 1-405): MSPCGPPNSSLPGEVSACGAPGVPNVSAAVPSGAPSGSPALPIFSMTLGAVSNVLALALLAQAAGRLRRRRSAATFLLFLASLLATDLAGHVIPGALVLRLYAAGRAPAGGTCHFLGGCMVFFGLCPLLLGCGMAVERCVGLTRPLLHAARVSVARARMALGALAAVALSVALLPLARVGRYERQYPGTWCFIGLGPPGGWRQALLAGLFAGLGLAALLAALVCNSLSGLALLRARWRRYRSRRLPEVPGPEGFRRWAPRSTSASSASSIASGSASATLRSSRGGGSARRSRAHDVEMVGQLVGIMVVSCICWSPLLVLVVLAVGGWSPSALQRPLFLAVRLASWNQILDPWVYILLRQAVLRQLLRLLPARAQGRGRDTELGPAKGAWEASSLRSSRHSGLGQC
Protocol: In order to determine the effectiveness of compounds of the invention ("test compounds") as prostaglandin E2 antagonists, a prostaglandin antagonism assay was conducted, as described below, to determine the ability of these compounds to inhibit prostaglandin E2 -induced contractions of segments of guinea pig ileum.
Male albino guinea pigs weighing 200 to 500 grams were sacrificed by cervical dislocation.
The ileums were then quickly removed from the guinea pigs and placed in a modified Tyrode solution, a solution which is known to those of skill in the art, containing one-half of the usual amount of magnesium ions.
Segments of ileum about 2 cm long were then cut and mounted in a 10-mL tissue bath containing the modified Tyrode solution. The solution was maintained at 37° C. and aerated with a gaseous mixture of 95% oxygen and 5% carbon dioxide.
Submaximal contractions of the ileum segments were then generated by injecting prostaglandin E2 into the bath, and detected isotonically. Data for a control prostaglandin E2 dose response curve plotting concentration of prostaglandin E2 versus number of contractions generated was then obtained by experimentally adjusting the dose of the prostaglandin E2 being injected into the tissue bath, in a manner known by those of skill in the art.
Solutions or suspensions containing an initial amount of a test compound in modified Tyrode solution ("test solutions/ suspensions") were then separately substituted for the tissue bath. […]
If the initial concentration of a test compound was determined to be "active," then varying concentrations of the test compound were then assayed.
The pA2 value (a statistical constant which is a common measure of expressing the potency of a particular drug as a competitive antagonist) was then calculated for the test compound by schild plot calculations, as described by H.O. Schild, "pA, A New Scale for the Measurement of Drug Antagonism," Br. J. Pharmacol, 2, 189 (1947), according to the following mathematical formula: […]
to quantitate the effectiveness of the test compound as a prostaglandin E2 antagonist.

[3] = system: stimulant actions of prostaglandins on isolated smooth muscle preparations; conditions: cited from earlier work
[4] = system: micturition reflex in rats; conditions: urethane-anesthetized rats; cited from earlier work

SMILES: O=C(CCCCCl)NNC(=O)N1Cc2ccccc2Oc2ccc(Cl)cc21 [8-chlorodibenz[b,f][1,4]-oxazepine-10(11H)-carboxylic acid, 2-(5-chloro-1-oxopentyl)hydrazide]
- antagonism of prostaglandins of the E series [1]: competitive antagonists of prostaglandins of the E series

SMILES: CC(=O)NNC(=O)N1Cc2ccccc2Oc2ccc(Cl)cc21 [8-chlorodibenz[b,f][1,4]-oxazepine-10(11H-carboxylic acid, 2-acetylhydrazide]
- antagonism of prostaglandins of the E series [1]: competitive antagonists of prostaglandins of the E series

SMILES: CCS(=O)(=O)CCC(=O)NNC(=O)N1Cc2cc(OC)ccc2Oc2ccc(Cl)cc21 [Example 3, 8-chloro-2-methoxydibenz[b,f][1,4]oxazepine-10(11H)-carboxylic acid, 2-[3-(ethylsulfonyl)-1-oxopropyl]hydrazide]
- rank order of potency in the Writhing Assay (mice): Example 4>Example 8>Example 7>Example 3

SMILES: CCS(=O)(=O)CCC(=O)NNC(=O)N1Cc2cc(O)ccc2Oc2ccc(Cl)cc21 [Example 4, 8-chloro-2-hydroxydibenz[b,f][1,4]oxazepine-10(11H)-carboxylic acid, 2-[3-(ethylsulfonyl)-1-oxopropyl]hydrazide]
- PBQ writhing assay, I.G. (activity) (mice): Active
- PBQ writhing assay, S.C. (activity) (mice): Active
- ED50 (mice; Mus musculus, po, 0.5 h, intragastric, read-out: PBQ writhing assay ED50, I.G.): 12.6 mg/kg
- rank order of potency in the Writhing Assay (mice): Example 4>Example 8>Example 7>Example 3; also recorded: the most potent compound of the invention tested in this assay
- activity as prostaglandin E2 antagonist, in words ([2]; guinea pig ileum): exhibits activity as a prostaglandin E2 antagonist
- PGE antagonism in guinea pig ileum (activity) ([2]; guinea pig ileum segments, 37° C.): Active
- Kb ([2]; guinea pig ileum segments, 37° C., Schild plot, read-out: PGE antagonism in guinea pig ileum (pA2) (converted)): 3.98 µM

SMILES: CCS(=O)(=O)CCC(=O)NNC(=O)N1Cc2ccc(OC)cc2Oc2ccc(Cl)cc21 [Example 7, 8-chloro-3-methoxydibenz[b,f][1,4]oxazepine-10(11H)-carboxylic acid, 2-[3-(ethylsulfonyl)-1-oxopropyl]hydrazide]
- PBQ writhing assay, I.G. (activity) (mice): Active
- rank order of potency in the Writhing Assay (mice): Example 4>Example 8>Example 7>Example 3

SMILES: CCS(=O)(=O)CCC(=O)NNC(=O)N1Cc2ccc(O)cc2Oc2ccc(Cl)cc21 [Example 8]
- PBQ writhing assay, I.G. (activity) (mice): Active
- PBQ writhing assay, S.C. (activity) (mice): Active
- rank order of potency in the Writhing Assay (mice): Example 4>Example 8>Example 7>Example 3

SMILES: O=C(Cc1ccccc1)NNC(=O)N1Cc2ccccc2Oc2ccc(Cl)cc21 [SC-18637]
- inhibition of stimulant actions of prostaglandins [3]: inhibit the stimulant actions of prostaglandins on isolated smooth muscle preparations

SMILES: CC(=O)NNC(=O)N1Cc2ccccc2Oc2ccc(Cl)cc21 [SC-19220]
- inhibition of stimulant actions of prostaglandins [3]: inhibit the stimulant actions of prostaglandins on isolated smooth muscle preparations
- bladder capacity [4]: increased the bladder capacity
- voiding efficiency of micturition [4]: reduced the voiding efficiency of micturition
